Assay results taken from US12098148B2, “Therapeutic compounds” (C4X Discovery Limited, priority 2018, dated 2024).

Tests used:
[1] = molecular target: human KEAP1 (N-term, residues 321-609) (Homo sapiens, UniProt Q14145); assay: biochemical;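 further: fluorescence polarization competition assay of Kelch domain binding to NRF2, 12-point 1:3 dilution series from 10 µM, read after 1 h at room temperature, floor 10 nM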
[2] = system: NQO1 mRNA in BEAS-2B cells; assay: Beas2B NQO1 mRNA cell based assay; design: species or system human; conditions: Homo sapiens, BEAS-2B, 24 h, 24 h compound treatment, increase in NQO1 mRNA vs vehicle (0.1% DMSO), read-out: EC50
Outline: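 Relative NQO1 transcript level derived by ΔΔCT with human β-actin as internal control, using direct-lysate one-step RT-qPCR. Cells were BEAS-2B, plated overnight then treated with compound for 24 h.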

Chain of human KEAP1 (N-term, residues 321-609) (Q14145 321-609): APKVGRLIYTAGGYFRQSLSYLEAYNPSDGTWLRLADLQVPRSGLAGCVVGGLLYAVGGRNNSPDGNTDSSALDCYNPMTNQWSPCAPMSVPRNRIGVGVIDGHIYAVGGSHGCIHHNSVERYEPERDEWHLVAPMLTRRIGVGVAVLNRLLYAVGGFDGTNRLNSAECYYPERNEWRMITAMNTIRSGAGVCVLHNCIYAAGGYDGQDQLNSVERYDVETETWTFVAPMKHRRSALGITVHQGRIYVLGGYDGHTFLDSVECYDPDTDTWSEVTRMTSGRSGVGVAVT

Compound: Cn1nnc(COc2ccc(Br)c3c2[C@@H](CN2CC4(CC4)CC2=O)N(C(=O)[C@@H]2CCCC[C@]2(C)C(=O)O)CC3)c1C(F)F [Example 198, (1S,2R)-2-((S)-5-bromo-8-((5-(difluoromethyl)-1-methyl-1H-1,2,3-triazol-4-yl)methoxy)-1-((6-oxo-5-azaspiro [2.4]heptan-5-yl)methyl)-1,2,3,4-tetrahydroisoquinoline-2-carbonyl)-1-methylcyclohexane-1-carboxylic acid]
- IC50 [1]: 5.2 nM
- EC50 [2]: 0.24 nM

Compound: Cn1nnc(COc2ccc(Cl)c3c2[C@@H](CN2CC4(CC4)CC2=O)N(C(=O)[C@@H]2CCCC[C@]2(C)C(=O)O)CC3)c1C1COC1 [Example 199, (1S,2R)-2-((S)-5-chloro-8-((1-methyl-5-(oxetan-3-yl)-1H-1,2,3-triazol-4-yl)methoxy)-1-((6-oxo-5-azaspiro [2.4]heptan-5-yl)methyl)-1,2,3,4-tetrahydroisoquinoline-2-carbonyl)-1-methylcyclohexane-1-carboxylic acid]
- IC50 [1]: 5.3 nM
- EC50 [2]: 0.34 nM

Compound: Cn1nnc(COc2ccc(Cl)c3c2[C@@H](CN2CCOCC2=O)N(C(=O)[C@@H]2CCCC[C@]2(C)C(=O)O)CC3)c1C(F)F [Example 200, (1S,2R)-2-((S)-5-chloro-8-((5-(difluoromethyl)-1-methyl-1H-1,2,3-triazol-4-yl)methoxy)-1-((3-oxomorpholino)methyl)-1,2,3,4-tetrahydroisoquinoline-2-carbonyl)-1-methylcyclohexane-1-carboxylic acid]
- IC50 [1]: 5.1 nM
- EC50 [2]: 1.2 nM

Compound: Cn1nnc(COc2ccc(Cl)c3c2[C@@H](CN2CC4(CC4)CC2=O)N(C(=O)[C@@H]2CC=CC[C@]2(C)C(=O)O)CC3)c1C(F)F [Example 201, (1S,6R)-6-((S)-5-chloro-8-((5-(difluoromethyl)-1-methyl-1H-1,2,3-triazol-4-yl)methoxy)-1-((6-oxo-5-azaspiro[2.4]heptan-5-yl)methyl)-1,2,3,4-tetrahydroisoquinoline-2-carbonyl)-1-methylcyclohex-3-ene-1-carboxylic acid]
- IC50 [1]: 3.3 nM
- EC50 [2]: 0.33 nM

Compound: Cn1nnc(COc2c(F)cc(Cl)c3c2[C@@H](CN2CC4(CC4)CC2=O)N(C(=O)[C@@H]2CCCC[C@]2(C)C(=O)O)CC3)c1C(F)F [Example 203, (1S,2R)-2-((S)-5-chloro-8-((5-(difluoromethyl)-1-methyl-1H-1,2,3-triazol-4-yl)methoxy)-7-fluoro-1-((6-oxo-5-azaspiro[2.4]heptan-5-yl)methyl)-1,2,3,4-tetrahydroisoquinoline-2-carbonyl)-1-methylcyclohexane-1-carboxylic acid]
- IC50 [1]: 6.2 nM
- EC50 [2]: 0.4 nM

Compound: C[C@]1(C(=O)O)CCCC[C@H]1C(=O)N1CCc2c(Cl)ccc(OCc3ncsc3C(F)F)c2[C@H]1CN1CC2(CC2)CC1=O [Example 204, (1S,2R)-2-((S)-5-chloro-8-((5-(difluoromethyl)thiazol-4-yl)methoxy)-1-((6-oxo-5-azaspiro[2.4]heptan-5-yl)methyl)-1,2,3,4-tetrahydroisoquinoline-2-carbonyl)-1-methylcyclohexane-1-carboxylic acid]
- IC50 [1]: 6.9 nM
- EC50 [2]: 13 nM

Compound: Cc1scnc1COc1ccc(Cl)c2c1[C@@H](CN1CC3(CC3)CC1=O)N(C(=O)[C@@H]1CCCC[C@]1(C)C(=O)O)CC2 [Example 205, (1S,2R)-2-((S)-5-chloro-8-((5-methylthiazol-4-yl)methoxy)-1-((6-oxo-5-azaspiro[2.4]heptan-5-yl)methyl)-1,2,3,4-tetrahydroisoquinoline-2-carbonyl)-1-methylcyclohexane-1-carboxylic acid]
- IC50 [1]: 5.5 nM
- EC50 [2]: 19 nM

Compound: Cn1ncc(COc2ccc(Cl)c3c2[C@@H](CN2CC4(CC4)CC2=O)N(C(=O)[C@@H]2CCCC[C@]2(C)C(=O)O)CC3)n1 [Example 206, (1S,2R)-2-((S)-5-chloro-8-((2-methyl-2H-1,2,3-triazol-4-yl)methoxy)-1-((6-oxo-5-azaspiro[2.4]heptan-5-yl)methyl)-1,2,3,4-tetrahydroisoquinoline-2-carbonyl)-1-methylcyclohexane-1-carboxylic acid]
- IC50 [1]: 6.6 nM
- EC50 [2]: 34 nM

Compound: Cn1nnc(COc2ccc(Cl)c3c2[C@@H](CN2CC4(CC4)CC2=O)N(C(=O)[C@@H]2C[C@@H]4C[C@@H]4C[C@]2(C)C(=O)O)CC3)c1C(F)F [Example 207, (1R,3S,4R,6S)-4-((S)-5-chloro-8-((5-(difluoromethyl)-1-methyl-1H-1,2,3-triazol-4-yl)methoxy)-1-((6-oxo-5-azaspiro[2.4]heptan-5-yl)methyl)-1,2,3,4-tetrahydroisoquinoline-2-carbonyl)-3-methylbicyclo[4.1.0]heptane-3-carboxylic acid]
- IC50 [1]: 5.1 nM
- EC50 [2]: 0.89 nM

Compound: Cn1nnc(COc2ccc(Cl)c3c2[C@@H](CN2CC4(CC4)CC2=O)N(C(=O)[C@@H]2C[C@H]4C[C@H]4C[C@]2(C)C(=O)O)CC3)c1C(F)F [Example 208, (1S,3S,4R,6R)-4-((S)-5-chloro-8-((5-(difluoromethyl)-1-methyl-1H-1,2,3-triazol-4-yl)methoxy)-1-((6-oxo-5-azaspiro[2.4]heptan-5-yl)methyl)-1,2,3,4-tetrahydroisoquinoline-2-carbonyl)-3-methylbicyclo[4.1.0]heptane-3-carboxylic acid]
- IC50 [1]: 580 nM
- EC50 [2]: 3300 nM

Compound: C[C@]1(C(=O)O)CCCC[C@H]1C(=O)N1CCc2c(Cl)ccc(OC3CCn4cnnc43)c2[C@H]1CN1CC2(CC2)CC1=O (stereo partly drawn) [Example 209, (1S,2R)-2-((1S)-5-chloro-8-((6,7-dihydro-5H-pyrrolo [2,1-c][1,2,4]triazol-7-yl)oxy)-1-((6-oxo-5-azaspiro[2.4]heptan-5-yl)methyl)-1,2,3,4-tetrahydroisoquinoline-2-carbonyl)-1-methylcyclohexane-1-carboxylic acid]
- IC50 [1]: 8.4 nM
- EC50 [2]: 290 nM

Compound: [2H][C@@H]1C[C@@H](C(=O)N2CCc3c(Cl)ccc(OCc4nnn(C)c4C(F)F)c3[C@H]2CN2CC3(CC3)CC2=O)[C@@](C)(C(=O)O)C[C@@H]1[2H] [Example 210, (1S,2R,4S,5R)-2-((S)-5-chloro-8-((5-(difluoromethyl)-1-methyl-1H-1,2,3-triazol-4-yl)methoxy)-1-((6-oxo-5-azaspiro[2.4]heptan-5-yl)methyl)-1,2,3,4-tetrahydroisoquinoline-2-carbonyl)-1-methylcyclohexane-1-carboxylic-4,5-d2 acid]
- IC50 [1]: 5.9 nM
- EC50 [2]: 0.24 nM

Compound: Cn1cccc(COc2ccc(Cl)c3c2[C@@H](CN2CC4(CC4)CC2=O)N(C(=O)[C@@H]2CCCC[C@]2(C)C(=O)O)CC3)c1=O [Example 211, (1S,2R)-2-((S)-5-chloro-8-((1-methyl-2-oxo-1,2-dihydropyridin-3-yl)methoxy)-1-((6-oxo-5-azaspiro[2.4]heptan-5-yl)methyl)-1,2,3,4-tetrahydroisoquinoline-2-carbonyl)-1-methylcyclohexane-1-carboxylic acid]
- IC50 [1]: 6.8 nM
- EC50 [2]: 43 nM

Compound: Cn1c(COc2ccc(Cl)c3c2[C@@H](CN2CC4(CC4)CC2=O)N(C(=O)[C@@H]2CCCC[C@]2(C)C(=O)O)CC3)cccc1=O [Example 214, (1S,2R)-2-((S)-5-chloro-8-((1-methyl-6-oxo-1,6-dihydropyridin-2-yl)methoxy)-1-((6-oxo-5-azaspiro [2.4]heptan-5-yl)methyl)-1,2,3,4-tetrahydroisoquinoline-2-carbonyl)-1-methylcyclohexane-1-carboxylic acid]
- IC50 [1]: 5.2 nM
- EC50 [2]: 41 nM

Compound: Cn1nnc(COc2ccc(Cl)c3c2[C@@H](CN2CC4(CC4)CC2=O)N(C(=O)[C@@H]2CC(F)(F)CC[C@]2(C)C(=O)O)CC3)c1C(F)F [Example 217, (1S,2R)-2-((S)-5-chloro-8-((5-(difluoromethyl)-1-methyl-1H-1,2,3-triazol-4-yl)methoxy)-1-((6-oxo-5-azaspiro[2.4]heptan-5-yl)methyl)-1,2,3,4-tetrahydroisoquinoline-2-carbonyl)-4,4-difluoro-1-methylcyclohexane-1-carboxylic acid]
- IC50 [1]: 9.8 nM
- EC50 [2]: 43 nM

Compound: Cn1nnc(COc2ccc(Cl)c3c2[C@@H](CN2CC4(CC4)CC2=O)N(C(=O)[C@@H]2C[C@@H](F)CC[C@]2(C)C(=O)O)CC3)c1C(F)F [Example 218, (1S,2R,4S)-2-((S)-5-chloro-8-((5-(difluoromethyl)-1-methyl-1H-1,2,3-triazol-4-yl)methoxy)-1-((6-oxo-5-azaspiro[2.4]heptan-5-yl)methyl)-1,2,3,4-tetrahydroisoquinoline-2-carbonyl)-4-fluoro-1-methylcyclohexane-1-carboxylic acid]
- IC50 [1]: 6.8 nM
- EC50 [2]: 0.98 nM

Compound: [2H][C@@H]1CC[C@](C)(C(=O)O)[C@H](C(=O)N2CCc3c(Cl)ccc(OCc4nnn(C)c4C(F)F)c3[C@H]2CN2CC3(CC3)CC2=O)C1 [Example 219, (1S,2R,4R)-2-((S)-5-chloro-8-((5-(difluoromethyl)-1-methyl-1H-1,2,3-triazol-4-yl)methoxy)-1-((6-oxo-5-azaspiro[2.4]heptan-5-yl)methyl)-1,2,3,4-tetrahydroisoquinoline-2-carbonyl)-1-methylcyclohexane-1-carboxylic-4-d acid]
- IC50 [1]: 5.3 nM
- EC50 [2]: 0.18 nM

Compound: Cn1nnc(COc2ccc(Cl)c3c2[C@@H](CN2CC4(CC4)CC2=O)N(C(=O)[C@@H]2C[C@@H](O)CC[C@]2(C)C(=O)O)CC3)c1C(F)F [Example 220, (1S,2R,4S)-2-((S)-5-chloro-8-((5-(difluoromethyl)-1-methyl-1H-1,2,3-triazol-4-yl)methoxy)-1-((6-oxo-5-azaspiro[2.4]heptan-5-yl)methyl)-1,2,3,4-tetrahydroisoquinoline-2-carbonyl)-4-hydroxy-1-methylcyclohexane-1-carboxylic acid]
- IC50 [1]: 7 nM
- EC50 [2]: 15 nM
